Data from article PMC3740496, “Synthesis and biological activities of the respiratory chain inhibitor aurachin D and new ring versus chain analogues” (Beilstein Journal of Organic Chemistry, 2013).
In brackets after ≈: the same amount, converted by molar mass.

Assays:
[1] = test system: mitochondrial membrane potential in U-2 OS osteosarcoma cells; experiment: MMP assay (high-content screening, TMRM); assay type: cell-based, human; details: 16 h; for reduction of the MMP: at concentrations as low as 5 µg/mL; for mitochondrial membrane potential (MMP), % of the control value: highest assay concentration (10 µg/mL), TMRM; for effect on MMP in the tested concentration range: 1 to 10 µg/mL
Method: Since aurachins are described as electron-transport inhibitors of the mitochondrial respiratory chain (complex I and III), we analyzed the synthetic analogues in high-content screening experiments with respect to a decrease of the mitochondrial membrane potential (MMP). Human U-2 OS osteosarcoma cells were treated for 16 hours with aurachins 4, 9–11, and 17–19 at concentrations between 1 and 10 µg/mL, and mitochondria were labeled with tetramethylrhodamine methyl ester (TMRM) in order to assess changes in MMP (Figure 2). Most prominent concentration-dependent effects were determined for aurachin D (4) and one of its analogues (17). […] This might be due to differential effects on different cell lines, a different time course of electron-transport inhibition, or a different mode of inducing apoptosis (e.g., via enhanced ROS formation). However, at the highest assay concentration also shorter chain analogues 9–11 reduced the MMP to approximately 60–80% of the control value as exemplarily shown for geranyl analogue 9 (Figure 2B).
Figure 2 (A) Loss of mitochondrial membrane potential in human U-2 OS osteosarcoma cells that were treated with aurachin D (4) and analogue 17. Images were acquired on a BD Pathway855 automated microscope and subsequently processed in AttoVision v1.6.2. The relative MMP was calculated based on TMRM fluorescence intensity in the cytoplasmic segments. The value of the negative control (untreated cells) was set to 100% and the value of FCCP-treated cells (positive control) was set to 0%. Bars represent the mean ±SEM of all cellular segments within a well. (B) Representative HCS images of U-2 OS cells that were treated with aurachin D (4) or the geranyl analogue 9. Cells were labeled with TMRM and imaged in the rhodamine channel at 200× magnification. […]
MMP assay: Human U-2 OS osteosarcoma cells (HTB-96) were obtained from the American Type Culture Collection (ATCC) and were cultured under the conditions recommended by the depositor. Cells from actively growing cultures were harvested and seeded at 8 × 10^3 cells per well in 96-well imaging plates (BD Falcon). After 1 d cells reached approximately 60% confluency and were treated with aurachin analogues at the assigned concentrations for 16 h. In addition, cells were stimulated with 1 µM FCCP [carbonyl cyanide 4-(trifluoromethoxy)phenylhydrazone] as a positive control 1 h prior to the measurement. For labeling, cells were washed twice with assay buffer ([…], 5.4 mM KCl, 2 mM MgCl2, 10 mM glucose, 2 mM CaCl2, 10 mM HEPES; pH 7.35) and 100 µL of a staining solution (50 nM TMRM, […]
5 µg/mL Hoechst33342 in assay buffer) was added. The cells were stained for 30 min at 37 °C and after washing with assay buffer the samples were examined on an automated microscope (BD Pathway855) in 200-fold magnification with appropriate filter sets for rhodamine and Hoechst. For image analysis, a dual mask (Cyto-Nuc-Ring) was applied in AttoVision v1.6.2. Presented rhodamine fluorescence intensity values were generated in the cytoplasmic segment (ring around nuclei) on a single cell basis and averaged over the complete sample (well).
(§1) In vitro antiplasmodial assays: The chloroquine-resistant strain FcB1/Colombia of Plasmodium falciparum was maintained in vitro on human erythrocytes in RPMI 1640 medium supplemented by 8% (v/v) heat-inactivated human serum, at 37 °C, under an atmosphere of 3% CO2, 6% O2, and 91% N2. In vitro drug susceptibility assays was measured by [3H]-hypoxanthine incorporation as described. Drugs were prepared in DMSO at a 10 mg/mL concentration. Compounds were serially diluted two-fold with 100 µL culture medium in 96-well plates. Asynchronous parasite cultures (100 µL, 1% parasitaemia and 1% final hematocrite) were then added to each well and incubated for 24 h at 37 °C prior to the addition of 0.5 µCi of [3H]- hypoxanthine (GE Healthcare, France, 1 to 5 Ci·mmol/mL) per well. After a further incubation of 24 h, plates were frozen and thawed. […]

[2] = test system: Plasmodium falciparum FcB1 (chloroquine-resistant); experiment: In vitro antiplasmodial assay ([3H]-hypoxanthine incorporation); assay type: cell-based; details: for IC50: Plasmodium falciparum, FCB1, triplicate (except compound 24), mean ±SD, read-out: IC50 P. falciparum FcB1; for antiplasmodial selectivity index: Vero cytotoxic concentration / concentration active on P. falciparum FcB1
Method: as §1, with “thawed. Cell lysates were then collected onto glass-fiber filters and counted in a liquid scintillation spectrometer. The growth inhibition for each drug concentration was determined by comparison of the radioactivity incorporated in the treated culture with that in the control culture maintained on the same plate. The concentration causing 50% growth inhibition (IC50) was obtained from the drug concentration–response curve and the results were expressed as the mean values ± standard deviations determined from several” for “thawed.”
independent experiments. Chloroquine diphosphate (Sigma–Aldrich) was used as antimalarial drug control. […]

Compound | reduction of the MMP [1] | mitochondrial membrane potential (MMP), % of the control value [1] | IC50 [2] [µg/mL] | antiplasmodial selectivity index [2] | effect on MMP in the tested concentration range [1]
CC(C)=CCC/C(C)=C/CC/C(C)=C/Cc1c(C)[nH]c2ccccc2c1=O [compound 4, aurachin D] | significantly reduced the MMP | approximately 50% | 0.04 ± 0.02 (≈ 0.11 µM) | 345 | –
CC(C)=CCC/C(C)=C/Cc1c(C)[nH]c2ccccc2c1=O [compound 9] | – | 60–80% | 0.07 ± 0.02 (≈ 0.237 µM) | 345 | –
CC(C)=CCCC(C)=CCCC(C)=CCc1c(C)[nH]c2ccc3ccccc3c2c1=O [compound 17] | significantly reduced the MMP | – | 0.51 ± 0.18 (≈ 1.23 µM) | – | strongly diminished the MMP
COc1ccc2[nH]c(C)c(CC=C(C)CCC=C(C)CCC=C(C)C)c(=O)c2c1 [compound 18] | – | – | 0.2 ± 0.04 (≈ 0.508 µM) | – | essentially inactive
CC(C)=CCCC(C)=CCCC(C)=CCc1c(C)[nH]c2cc3c(cc2c1=O)OCO3 [compound 19] | – | – | 0.42 ± 0.09 (≈ 1.03 µM) | – | essentially inactive
